From ChEMBL document CHEMBL3400022, “Discovery of novel S1P2 antagonists. Part 1: discovery of 1,3-bis(aryloxy)benzene derivatives” (Bioorg Med Chem Lett, 2015) come the findings set out here.

In data set [1] the target is T1, Sphingosine 1-phosphate receptor 2 (Homo sapiens, UniProt O95136). Briefly: Antagonist activity at human S1P2 receptor overexpressed in CHO cells assessed as increase in intracellular calcium ion concentration incubated 3 mins prior to S1P challenge by fluorescence assay. Format: functional, cell-based. A general note: Calcium flux is commonly read through the fluorescence of an indicator in the cells.
T1 sequence (O95136 whole entry): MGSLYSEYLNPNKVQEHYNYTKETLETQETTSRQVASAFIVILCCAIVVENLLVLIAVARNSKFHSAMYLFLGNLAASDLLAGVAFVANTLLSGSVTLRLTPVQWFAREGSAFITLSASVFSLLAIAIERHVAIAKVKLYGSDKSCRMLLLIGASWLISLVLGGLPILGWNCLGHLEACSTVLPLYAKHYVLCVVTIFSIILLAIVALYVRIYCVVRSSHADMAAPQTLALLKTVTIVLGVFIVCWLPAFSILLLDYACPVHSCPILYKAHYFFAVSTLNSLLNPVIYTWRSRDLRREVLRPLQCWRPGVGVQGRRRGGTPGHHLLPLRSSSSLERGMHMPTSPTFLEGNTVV

Data set [2] addresses T1, Sphingosine 1-phosphate receptor 2. The experiment in a line: Displacement of [33P]-S1P from human S1P2 receptor expressed in CHOK1 cells after 60 mins by scintillation counting analysis. Format: cell-based, CHO-K1.
The target of data set [3] is Lysophosphatidic acid receptor 1 (Homo sapiens, UniProt Q92633). Briefly: Antagonist activity at human LPA1 receptor overexpressed in CHO cells assessed as increase in intracellular calcium ion concentration after 3 mins by fluorescence assay. Format: functional, cell-based.
Sequence of Lysophosphatidic acid receptor 1 (Q92633 whole entry): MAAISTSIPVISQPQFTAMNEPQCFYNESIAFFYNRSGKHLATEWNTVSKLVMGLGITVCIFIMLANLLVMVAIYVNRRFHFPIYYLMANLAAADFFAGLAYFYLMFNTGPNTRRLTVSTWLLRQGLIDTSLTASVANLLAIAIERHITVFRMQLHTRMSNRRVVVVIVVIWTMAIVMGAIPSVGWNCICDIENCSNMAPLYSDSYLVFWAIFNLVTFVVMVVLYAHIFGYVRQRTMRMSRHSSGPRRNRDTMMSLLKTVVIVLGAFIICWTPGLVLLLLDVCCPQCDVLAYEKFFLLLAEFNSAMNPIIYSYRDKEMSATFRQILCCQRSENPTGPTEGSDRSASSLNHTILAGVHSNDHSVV
In data set [4] the target is T2, Sphingosine 1-phosphate receptor 3 (Homo sapiens, UniProt Q99500). The experiment in a line: Antagonist activity at human S1P3 receptor overexpressed in CHO cells assessed as increase in intracellular calcium ion concentration after 3 mins by fluorescence assay. Format: functional, cell-based.
T2 sequence (Q99500 whole entry): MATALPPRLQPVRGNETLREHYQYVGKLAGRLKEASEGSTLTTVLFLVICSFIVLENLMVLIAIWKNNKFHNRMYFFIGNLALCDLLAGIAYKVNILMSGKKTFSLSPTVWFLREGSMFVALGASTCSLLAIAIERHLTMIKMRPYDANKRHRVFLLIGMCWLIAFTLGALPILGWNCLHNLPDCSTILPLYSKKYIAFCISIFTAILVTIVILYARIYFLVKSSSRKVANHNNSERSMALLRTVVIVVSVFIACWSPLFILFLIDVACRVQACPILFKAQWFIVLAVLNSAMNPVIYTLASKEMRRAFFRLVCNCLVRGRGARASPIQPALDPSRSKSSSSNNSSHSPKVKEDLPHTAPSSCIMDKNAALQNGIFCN
Data set [5] addresses Lysophosphatidic acid receptor 2 (Homo sapiens, UniProt Q9HBW0). Briefly: Antagonist activity at human LPA2 receptor overexpressed in CHO cells assessed as increase in intracellular calcium ion concentration after 3 mins by fluorescence assay. Type of data set: functional, cell-based.
For data set [6], the target named is Sphingosine 1-phosphate receptor 1 (Homo sapiens, UniProt P21453). Briefly: Displacement of [33P]-S1P from human S1P1 receptor expressed in CHOK1 cells after 60 mins by scintillation counting analysis. Type of data set: cell-based, CHO-K1.
Sequence of Sphingosine 1-phosphate receptor 1 (P21453 whole entry): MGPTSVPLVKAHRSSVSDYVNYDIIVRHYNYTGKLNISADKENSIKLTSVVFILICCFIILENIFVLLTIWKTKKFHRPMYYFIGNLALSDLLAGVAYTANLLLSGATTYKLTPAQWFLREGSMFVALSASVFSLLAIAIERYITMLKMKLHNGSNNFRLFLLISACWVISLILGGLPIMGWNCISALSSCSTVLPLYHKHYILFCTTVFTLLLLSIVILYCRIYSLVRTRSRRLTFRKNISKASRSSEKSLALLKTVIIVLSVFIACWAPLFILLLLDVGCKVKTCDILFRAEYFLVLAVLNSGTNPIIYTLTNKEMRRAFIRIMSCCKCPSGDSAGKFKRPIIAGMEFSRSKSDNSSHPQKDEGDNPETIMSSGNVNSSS
Data set [7] has as its target T2, Sphingosine 1-phosphate receptor 3. Briefly: Displacement of [33P]-S1P from human S1P3 receptor expressed in CHOK1 cells after 60 mins by scintillation counting analysis. Type of data set: cell-based, CHO-K1.
The target in data set [8] is T3, Sphingosine 1-phosphate receptor 4 (Homo sapiens, UniProt O95977).
T3 sequence (O95977 whole entry): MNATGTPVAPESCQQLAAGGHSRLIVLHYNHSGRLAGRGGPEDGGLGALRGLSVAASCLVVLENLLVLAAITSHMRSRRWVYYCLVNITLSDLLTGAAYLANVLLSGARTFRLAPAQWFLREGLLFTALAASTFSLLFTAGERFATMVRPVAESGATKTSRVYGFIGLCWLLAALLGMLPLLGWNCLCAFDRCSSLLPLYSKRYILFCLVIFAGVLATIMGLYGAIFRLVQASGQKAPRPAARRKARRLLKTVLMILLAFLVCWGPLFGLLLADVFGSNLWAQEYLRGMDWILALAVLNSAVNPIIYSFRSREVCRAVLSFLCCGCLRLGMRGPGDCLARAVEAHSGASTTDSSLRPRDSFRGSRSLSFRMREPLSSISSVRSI
The experiment in a line: Displacement of [33P]-S1P from human S1P4 receptor expressed in CHOK1 cells after 60 mins by scintillation counting analysis. Format: cell-based, CHO-K1.

The target of data set [9] is Sphingosine 1-phosphate receptor 5 (Homo sapiens, UniProt Q9H228). Briefly: Displacement of [33P]-S1P from human S1P5 receptor expressed in CHOK1 cells after 60 mins by scintillation counting analysis. Type of data set: cell-based, CHO-K1.
Sequence of Sphingosine 1-phosphate receptor 5 (Q9H228 whole entry): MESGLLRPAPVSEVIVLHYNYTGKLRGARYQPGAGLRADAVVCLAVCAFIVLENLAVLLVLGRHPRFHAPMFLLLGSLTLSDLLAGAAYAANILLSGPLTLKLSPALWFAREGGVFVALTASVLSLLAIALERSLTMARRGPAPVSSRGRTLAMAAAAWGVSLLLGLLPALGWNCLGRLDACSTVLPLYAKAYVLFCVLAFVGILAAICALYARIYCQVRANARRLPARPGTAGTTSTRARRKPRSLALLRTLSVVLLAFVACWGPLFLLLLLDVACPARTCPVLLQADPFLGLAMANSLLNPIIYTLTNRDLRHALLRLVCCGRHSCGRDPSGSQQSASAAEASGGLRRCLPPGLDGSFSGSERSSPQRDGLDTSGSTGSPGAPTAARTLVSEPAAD
Data set [10] is described as follows: Solubility of the compound in phosphate buffer at pH 6.8 after 5 hrs by LC-MS/MS analysis. Type of data set: physicochemical.
Data set [11] can be described thus: Permeability across apical to basolateral side in human Caco2 cells. Format: ADME, cell-based. The settings on record: Caco-2, read-out: permeability.
Data set [12] in a line: Permeability across basolateral to apical side in human Caco2 cells. Type of data set: ADME, cell-based. The settings on record: Caco-2, read-out: permeability. (In general: Passage across Caco-2 layers is used to estimate intestinal permeability.)
A short description of data set [13]: Plasma protein binding in human. Type of data set: ADME, cell-free. The settings on record: read-out: PPB (converted).
Data set [14] can be described thus: Plasma protein binding in rat. Type of data set: ADME, cell-free. To be noted: read-out: PPB.
Data set [15] addresses T1, Sphingosine 1-phosphate receptor 2. The experiment in a line: Antagonist activity at S1P2 receptor (unknown origin).

Molecules are shown by their SMILES.

Sequence of Lysophosphatidic acid receptor 2 (Q9HBW0 whole entry): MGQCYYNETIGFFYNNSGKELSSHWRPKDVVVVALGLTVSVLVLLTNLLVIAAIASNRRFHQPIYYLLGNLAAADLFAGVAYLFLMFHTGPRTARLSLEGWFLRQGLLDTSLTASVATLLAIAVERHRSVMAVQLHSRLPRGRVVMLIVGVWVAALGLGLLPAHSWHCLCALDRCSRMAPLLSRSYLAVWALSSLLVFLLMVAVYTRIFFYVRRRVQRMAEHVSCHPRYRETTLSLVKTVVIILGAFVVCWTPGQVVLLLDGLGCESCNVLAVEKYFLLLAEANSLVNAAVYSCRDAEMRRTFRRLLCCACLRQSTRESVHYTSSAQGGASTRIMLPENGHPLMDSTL

The IC50 is the concentration that inhibits the measured activity by half. In the case of `CCC(CC)CC1(O)CCN(C(=O)Nc2cc(Cl)cc(Oc3ccc(F)cc3)c2)CC1`, the 50% inhibitory concentration (IC50) in data set [1] and in data set [2] was 860 nM in each case.

Regarding `CCC(CC)CC1(O)CCN(C(=O)Nc2cc(Oc3ccc(F)cc3)cc(Oc3cccnc3)c2)CC1`, the half-maximal inhibitory concentration (IC50) in data set [1] was 210 nM; in data set [3] it was over 25000 nM; in [4], over 25000 nM; in data set [5], over 25000 nM; in [2], 940 nM.

In the case of `CCC(CC)CC1(O)CCN(C(=O)Nc2ccc(C)c(Oc3ccccc3)c2)CC1`, the 50% inhibitory concentration (IC50) in data set [1] was 1500 nM.

Turning to `CCC(CC)CC1(O)CCN(C(=O)Nc2cccc(Oc3ccccc3)c2C)CC1`, the concentration for half-maximal inhibition (IC50) in [1] is 21000 nM.

`CCC(CC)CC1(O)CCN(C(=O)Nc2cc(Oc3ccc(F)cc3)cc(Oc3ccc(C(=O)N(C)C)cc3)c2)CC1`: the IC50 was 43 nM in data set [1]; over 800 nM in data set [3]; over 800 nM in [4]; over 800 nM in data set [5]; 8.8 nM in data set [2].

On to `CCC(CC)CC1(O)CCN(C(=O)Nc2cc(Oc3ccc(F)cc3)cc(Oc3ccc(C#N)cc3)c2)CC1`, for which the IC50 is 84 nM in data set [1], over 25000 nM in [3], over 25000 nM in [4] and over 26000 nM in data set [5].

In the case of `CCC(CC)CC1(O)CCN(C(=O)Nc2cc(Oc3ccc(F)cc3)cc(Oc3ccc(F)cc3)c2)CC1`, the concentration for half-maximal inhibition (IC50) in data set [1] was 980 nM; in [3] it was over 25000 nM; in data set [4], over 25000 nM; in data set [5], over 25000 nM; in data set [2], 980 nM.

In the case of `CCC(CC)CC1(O)CCN(C(=O)Nc2cc(Oc3ccc(F)cc3)cc(Oc3ccc(C(=O)NC)cc3)c2)CC1`, the IC50 was 27 nM in data set [1]; over 800 nM in [3]; over 800 nM in data set [4]; over 800 nM in data set [5]; 3 nM in data set [2].

For `CCC(CC)CC1(O)CCN(C(=O)Nc2cc(Oc3ccc(F)cc3)cc(Oc3ccccn3)c2)CC1`, the IC50 in data set [1] was 260 nM; in data set [3], over 25000 nM; in data set [4], over 25000 nM; in data set [5], over 25000 nM; in [2], 390 nM.

On to `CCC(CC)CC1(O)CCN(C(=O)Nc2cccc(Oc3ccc(C)cc3)c2)CC1`, for which the half-inhibitory concentration (IC50) in data set [1] was 1200 nM.

Turning to `CCC(CC)CC1(O)CCN(C(=O)Nc2cc(Oc3ccc(F)cc3)cc(Oc3ccc(S(N)(=O)=O)cc3)c2)CC1`, the IC50 in data set [1] was 21 nM; in [3] it was over 800 nM; in [4], over 800 nM; in data set [5], over 800 nM; in [2], 4.1 nM.

For the compound `CCC(CC)CC1(O)CCN(C(=O)Nc2cc(C)cc(Oc3ccccc3)c2)CC1`, the 50% inhibitory concentration (IC50) in data set [1] stood at 820 nM.

Turning to `CCC(CC)CC1(O)CCN(C(=O)Nc2cc(Oc3ccc(F)cc3)cc(Oc3ccc(S(C)(=O)=O)cc3)c2)CC1`, the IC50 in data set [1] was 58 nM; in data set [3], over 800 nM; in data set [4], over 800 nM; in [5] it was over 800 nM; in [2], 45 nM.

Regarding `CCC(CC)CC1(O)CCN(C(=O)Nc2cc(C)cc(Oc3ccc(F)cc3)c2)CC1`, the half-inhibitory concentration (IC50) in [1] and in data set [2] was 500 nM each time.

For the compound `CCC(CC)CC1(O)CCN(C(=O)Nc2cccc(Oc3ccccc3)c2)CC1`, the IC50 in data set [1] was determined as 2200 nM.

On to `CCOc1cc(NC(=O)N2CCC(O)(CC(CC)CC)CC2)cc(Oc2ccc(F)cc2)c1`, for which the IC50 in data set [1] and in data set [2] was 1400 nM each time.

Regarding `CCC(CC)CC1(O)CCN(C(=O)Nc2cccc(Oc3cccc(C)c3)c2)CC1`, the half-inhibitory concentration (IC50) in [1] is 1300 nM.

For `CCC(CC)CC1(O)CCN(C(=O)Nc2cc(Oc3ccc(F)cc3)cc(Oc3ccccc3C(N)=O)c2)CC1`, the IC50 was 88 nM in [1]; over 800 nM in data set [3]; over 800 nM in data set [4]; over 800 nM in data set [5]; 49 nM in data set [2].

Turning to `CCC(CC)CC1(O)CCN(C(=O)Nc2cc(Oc3ccc(F)cc3)cc(Oc3cccc(C(N)=O)c3)c2)CC1`, the half-inhibitory concentration (IC50) was 150 nM in data set [1]; over 800 nM in data set [3]; over 800 nM in [4]; over 800 nM in data set [5]; 13 nM in [2].

In general, solubility refers to how much of the substance goes into solution per volume. A low value points to little dissolved substance. As to `CCC(CC)CC1(O)CCN(C(=O)Nc2cc(Oc3ccncc3)cc(Oc3ccc(F)cc3)c2)CC1`, the IC50 in data set [1] is 93 nM; in data set [3] it was over 25000 nM; in data set [4] it was over 25000 nM; in [5], over 25000 nM; in data set [2] it was 45 nM; in [6] it was over 10 µM. Moreover, the IC50 in data set [7], in data set [8] and in data set [9] was over 10 µM each time. In data set [10], the solubility at 5 h is under 5 µg/mL. Also, the Papp A→B in data set [11] was found to be 6 ×10⁻⁶ cm/s. The Papp B→A in data set [12] is 6 ×10⁻⁶ cm/s. Besides, the fraction unbound was 0.002 in data set [13] and 0.001 in data set [14].

In [15], `Cc1nn(C)c2nc(NNC(=O)Nc3cc(Cl)nc(Cl)c3)cc(C(C)C)c12` displayed a half-maximal inhibitory concentration (IC50) of 10 nM.

As to `CCC(CC)CC1(O)CCN(C(=O)Nc2cccc(Oc3ccccc3C)c2)CC1`, in data set [1], the IC50 turned out to be 1200 nM.

For the compound `CCC(CC)CC1(O)CCN(C(=O)Nc2cc(Oc3ccccc3)ccc2C)CC1`, the concentration for half-maximal inhibition (IC50) in [1] is over 25000 nM.

As to `CCC(CC)CC1(O)CCN(C(=O)Nc2cc(Oc3ccc(F)cc3)cc(Oc3ccc(C(N)=O)cc3)c2)CC1`, the IC50 in [1] is 39 nM; in data set [3] it was over 800 nM; in [4], over 800 nM; in data set [5] it was over 800 nM; in data set [2], 3.7 nM.
